Results: patent publication US12653796B2, “Compounds for use (in particular RIPA-56) in the prevention and/or treatment of non-alcoholic fatty liver disease” (SORBONNE UNIVERSITE, priority 2019, dated 2026)
Residues, ends and D or L forms follow the SMILES beside them. *: point of attachment. Cbz = O=C(OCc1ccccc1)*; CH2F = FC*

What was measured:
[1] = test system: RIPK1; test: ELISA of RIPK1 released in supernatant of L929 cells exposed to TNFα; type: cell-based, murine; conditions: 20 μM, 2 h, then TNFα (25 ng/mL) 6 h
Description: FIG. 12. […] Results are shown as mean±SEM of six replicates.
L929 cells (LGC Standards, Molsheim, France), were cultured in Dulbecco's modified Eagle's medium (DMEM) (ThermoFisher, Massachusetts, USA) supplemented with 10% fetal bovine serum (Eurobio, Courtaboeuf, France), penicillin (100 IU/ml), streptomycin (0.1 mg/ml), and L-glutamine (0.03%) (ThermoFisher). […] AML-12 (alpha mouse liver-12) hepatocytes (LGC Standards) were cultured in DMEM/F12 Medium (ThermoFisher) supplemented with 10% fetal bovine serum (Eurobio), 10 μg/ml insulin, 5.5 μg/ml transferrin, 5 ng/ml selenium and 40 ng/ml dexamethasone (Sigma, Missouri, USA). AML-12 hepatocytes were stimulated with insulin (#I0516, 10 nM; Sigma) for 15 minutes.
Protein concentrations of human RIPK1 (SEE640Hu; Could-Clone Corp., Texas, USA), human MLKL (SER645Hu; Could-Clone Corp.) and murine RIPK1 (CSB-EL019735MO; Cusabio, Texas, USA) were determined by an ELISA kit according to the manufacturer's instructions.

[2] = test system: primary human hepatocytes; test: Fat depletion in primary human hepatocytes with free fatty acid-induced steatosis; type: cell-based; conditions: 20 μM, 24 h
Description: FIG. 7. RIPA-56 treatment induces fat depletion in primary human hepatocytes. Primary human hepatocytes were isolated from steatotic human livers of patients with NAFLD (n=5) (A-C) or from non-steatotic human livers and incubated with free fatty acids to induce steatosis or without (W/O) (n=5) (D-G), and treated with RIPA-56 (20 μM) or DMSO (vehicle) for 24 h. (A, D) Representative Oil Red-O and DAPI images; (B, E) Quantification of Oil Red-O staining normalized for the number of DAPI-stained nuclei; (C, F) Quantification of intracellular triglycerides normalized to protein content; (G) mRNA levels of CPT1A, MTTP and APOB100 were assessed by RT-qPCR, and shown relative to DMSO-treated hepatocytes. Results are shown as mean±SEM; n.s., not significant; *p<0.05; **p<0.01; scale bars, 100 μm. These findings are representative of five independent cell preparations.
FIG. 9. MLKL controls intrahepatic triglyceride content in hepatocytes. (A-D) Primary human hepatocytes were isolated from non-steatotic human livers and incubated with free fatty acids to induce steatosis, or without (W/O), and treated with necrosulfonamide (NSA) (20 μM) or DMSO (vehicle) for 24 h. (A) Representative Oil Red-O and DAPI images; (B) Quantification of Oil Red-O staining normalized for the number of DAPI-stained nuclei; (C) Quantification of intracellular triglycerides normalized to protein content. (D) mRNA levels of CPT1A, MTTP and APOB100 were assessed by RT-qPCR and shown relative to DMSO-treated hepatocytes; (E-H) AML-12 cells were knocked-out (KO) for MLKL and compared with control (CTL) cells, which underwent a similar CRISPR-Cas9 selection as KO cells; (E) Whole-cell lysates were extracted from CTL and MLKL-KO AML-12 cells and analyzed by Western blot using antibodies against MLKL, Tubulin and GAPDH; (F) Representative Oil Red-O and DAPI images; (G) Oil Red-O staining and (H) triglycerides quantification in fat-loaded cell lines. Results are shown as mean±SEM; n.s., not significant; *p<0.05; **p<0.01; ***p<0.001; scale bars, 100 μm. These experiments are representative of five independent cell preparations.
The liver fragment was initially perfused with a prewarmed (37° C.) calcium-free buffer supplemented with 5 mmol/L ethylene glycol tetra-acetic acid (Sigma) followed by perfusion with a prewarmed (37° C.) buffer containing 6 mmol/L calcium (CaCl2) and collagenase 0.05% ([…]) (Sigma). The liver fragment was then gently shaken to disperse liver cells in Hepatocyte Wash Medium (Life Technologies, Villebon-sur-Yvette, France). The resulting cell suspension was filtered through a gauze-lined funnel. Cells were then centrifuged at low speed. The supernatant, containing damaged or dead hepatocytes, non-parenchymal cells and debris were removed and pelleted hepatocytes were re-suspended in Hepatocyte Wash Medium. The count of viable cells was determined using trypan blue exclusion. Freshly isolated normal (steatosis <5%) or steatotic (>10%) hepatocytes were resuspended in Williams medium E (Life technologies) containing 10% fetal calf serum (Eurobio), penicillin (200 U/mL)-streptomycin (200 μg/mL), Fungizone (2.5 μg/mL) and insulin (0.1 U/mL) (Life Technologies). The cells were seeded in 12-, 24- and 96-well plates pre-coated with type I collagen at a density of 0.78×10^6, 0.4×10^6 and 0.5×10^5 viable cells/well, respectively, and incubated overnight at 37° C. in a 5% CO2 atmosphere. The medium was replaced with fresh complete hepatocyte medium supplemented with 1 μmol/L hydrocortisone hemisuccinate (Laboratoires SERB, Paris, France) and hepatocytes were maintained in this medium. To induce steatosis in normal hepatocytes, PHH were incubated with free fatty acid (FFA) mixtures of oleic acid and palmitic acid in a molar ratio 2:1 (500:250 μmol/L), respectively, and with 1% fatty-acid-free BSA for 48 hours.
Total RNA was purified from liver tissue using TRIzol reagent (ThermoFisher) and a RNeasy Mini kit (Qiagen, Courtaboeuf, France). […]

Molecule	RIPK1 in the supernatant [1]	intracellular lipid droplets (Oil Red-O) ([2]; FFA-induced steatosis)	intracellular triglyceride content ([2]; FFA-induced steatosis)	CPT1A expression (mRNA) ([2]; RT-qPCR)
COC(=O)C[C@H](NC(=O)[C@H](C)NC(=O)[C@@H](NC(=O)OCc1ccccc1)C(C)C)C(=O)CF [Zvad] (Cbz-Val-Ala-Asp(OMe)-CH2F)	released	–	–	–
COc1nccnc1NS(=O)(=O)c1ccc(NC(=O)/C=C/c2ccc([N+](=O)[O-])s2)cc1 [necrosulfonamide, reference compound]	–	significantly decreased	significantly decreased	upregulated
necrostatin-1 [Nec-1]	undetectable	–	–	–
